Reference: ChEMBL document CHEMBL5352390, “Design, synthesis and biological evaluation of (Quinazoline 4-yloxy)acetamide and (4-oxoquinazoline-3(4H)-yl)acetamide derivatives as inhibitors of Mycobacterium tuberculosis bd oxidase” (2022)
Values after ≈ are worked out from the molar mass of the structure shown. Active and inactive are the calls of the source. The rule behind the calls is not given here.

Columns and labels:
[1] = test system: Mycobacterium tuberculosis; assay: Bactericidal activity against wild type Mycobacterium tuberculosis H37Rv under hypoxia condition assessed as reduction in log10 CFU at 0.5 ug/ml incubated for 3 days by Methylene blue dye based CFU assay; format: functional, organism-based; conditions: dose 0.5 µg/ml, time 3.0 day
[2] = test system: Mycobacterium tuberculosis; assay: Antimycobacterial activity against wild type Mycobacterium tuberculosis H37Rv assessed as inhibition of bacterial growth incubated for 7 days by resazurin microplate assay; format: functional; conditions: 168 h, time 7 day
[3] = test system: Mycobacterium tuberculosis; assay: Synergistic antimycobacterial activity against wild type Mycobacterium tuberculosis H37Rv assessed as fractional inhibitory concentration index incubated for 7 days in presence of Q203 by checkboard format based resazurin microplate assay; format: functional; conditions: time 7 day
[4] = test system: Mycobacterium tuberculosis; assay: Bactericidal activity against wild type Mycobacterium tuberculosis H37Rv under hypoxia condition assessed as reduction in log10 CFU at 32 uM incubated for 3 days by Methylene blue dye based CFU assay; format: functional; conditions: time 3 day
[5] = test system: Mycobacterium tuberculosis; assay: Synergistic bactericidal activity against wild type Mycobacterium tuberculosis H37Rv under hypoxia condition assessed as reduction in log10 CFU at 32 uM incubated for 3 days in presence of Q203 by Methylene blue dye based CFU assay; format: functional; conditions: time 3 day
[6] = test system: Mycobacterium tuberculosis; assay: (§1) Inhibition of wild type Mycobacterium tuberculosis H37Rv cytochrome bd oxidase assessed as reduction in total cellular ATP level by measuring relative luminescence unit at 32 uM incubated for 15 hrs by BacTiter-Glo microbial cell viability reagent based bioluminescence assay relative to control (Rvb= 13.73%)
[7] = test system: Mycobacterium tuberculosis; assay: as §1, with “hrs in presence of Q203” for “hrs”
[8] = test system: Mycobacterium tuberculosis; assay: Inhibition of wild type Mycobacterium tuberculosis H37Rv cytochrome bd oxidase assessed as inhibition of oxygen consumption at 16 to 64 uM and measured after 5 days by Methylene blue dye based assay; conditions: dose 16-64 µM, time 5.0 day
[9] = test system: Mycobacterium tuberculosis; assay: Inhibition of wild type Mycobacterium tuberculosis H37Rv cytochrome bd oxidase assessed as inhibition of oxygen consumption at 16 to 64 uM and measured for 20 days in presence of Q203 by Methylene blue dye based assay; conditions: dose 16-64 µM, time 20.0 day
[10] = test system: Mycobacterium tuberculosis; assay: Bactericidal activity against wild type Mycobacterium tuberculosis H37Rv under hypoxia condition assessed as reduction in log10 CFU at 0.03 uM incubated for 3 days by Methylene blue dye based CFU assay; format: functional; conditions: time 3 day
[11] = test system: Mycobacterium tuberculosis; assay: as §1, with “0.1” for “32”
[12] = test system: Mycobacterium tuberculosis; assay: Inhibition of wild type Mycobacterium tuberculosis H37Rv cytochrome bd oxidase assessed as inhibition of oxygen consumption at 0.1 uM and measured after 5 days by Methylene blue dye based assay; conditions: time 5.0 day
[13] = test system: Mycobacterium tuberculosis; assay: Bactericidal activity against wild type Mycobacterium tuberculosis H37Rv under hypoxia condition assessed as reduction in log10 CFU at 0.5 uM incubated for 3 days by Methylene blue dye based CFU assay; format: functional; conditions: time 3 day

| SMILES | MIC [2] [µM] | further results |
| --- | --- | --- |
| NNC(=O)c1ccncc1 |  | Activity [1]: inactive |
| COc1ccccc1NC(=O)COc1ncnc2ccccc12 | > 32 |  |
| COc1ccc(NC(=O)Cn2cnc3ccccc3c2=O)cc1 | > 32 |  |
| COc1ccc(NC(=O)COc2ncnc3ccccc23)cc1 | > 32 |  |
| COc1ccc(N2CCN(c3ccc(CNC(=O)COc4ncnc5ccccc45)cc3)CC2)cc1 | > 32 |  |
| O=C(Cn1cnc2ccccc2c1=O)Nc1ccc(C(F)(F)F)cc1 | > 32 |  |
| Cc1ccc(NC(=O)Cn2cnc3ccccc3c2=O)cc1 | > 32 |  |
| O=C(Cn1cnc2ccccc2c1=O)Nc1ccc(Cl)cc1 | > 32 |  |
| COc1ccccc1NC(=O)Cn1cnc2ccccc2c1=O | > 32 |  |
| O=C(COc1ncnc2ccccc12)Nc1ccc(C(F)(F)F)cc1 | > 32 |  |
| O=C(COc1ncnc2ccccc12)NCc1ccccc1 | > 32 |  |
| O=C(COc1ncnc2ccccc12)Nc1ccc(Br)cc1 | > 32 |  |
| O=C(Cn1cnc2ccccc2c1=O)NC1=C(C(F)(F)F)CCC=C1 | > 32 |  |
| O=C(COc1ncnc2ccccc12)NCc1ccc(N2CCN(c3ccc(F)cc3)CC2)cc1 | > 32 |  |
| O=C(COc1ncnc2ccccc12)Nc1ccc(F)cc1 | > 32 |  |
| O=C(COc1ncnc2ccccc12)NCc1ccc(N2CCN(c3ccccc3)CC2)cc1 | > 32 |  |

| SMILES | MIC [2] [µM] | further results |
| --- | --- | --- |
| O=C(Cn1cnc2ccccc2c1=O)Nc1ccc(F)cc1 | > 32 |  |
| O=C(COc1ncnc2ccccc12)Nc1cccc2ccccc12 | > 32 |  |
| O=C(Cn1cnc2ccccc2c1=O)Nc1ccc(OC(F)(F)F)cc1 | > 32 |  |
| O=C(COc1ncnc2ccccc12)Nc1ccccc1 | 128 (≈ 35.8 µg/mL) | fractional inhibitory concentration index (FICI) [3]: 1.062; Activity [4]: 1.9 log10CFU; Activity [5]: 4 log10CFU; inhibition [6]: 7%; inhibition [7]: 89.8%; inhibition [8]: inactive; inhibition [9]: Active |
| O=C(COc1ncnc2ccccc12)Nc1ccc(OC(F)(F)F)cc1 | > 32 |  |
| O=C(COc1ncnc2ccccc12)Nc1ccc(Cl)cc1 | 256 (≈ 80.3 µg/mL) | fractional inhibitory concentration index (FICI) [3]: 0.375; Activity [4]: 1.9 log10CFU; Activity [5]: 4 log10CFU; inhibition [6]: 22.8%; inhibition [7]: 91.2%; inhibition [8]: inactive; inhibition [9]: Active |
| O=C(Cn1cnc2ccccc2c1=O)Nc1ccc([N+](=O)[O-])cc1 | > 32 |  |
| O=C(Cn1cnc2ccccc2c1=O)Nc1ccc(Br)cc1 | > 32 |  |
| O=C(COc1ncnc2ccccc12)NCc1ccc(N2CCC(c3ccccc3)CC2)cc1 | > 32 |  |
| CSc1ccc(NC(=O)Cn2cnc3ccccc3c2=O)cc1 | > 32 |  |
| Cc1ccc(NC(=O)COc2ncnc3ccccc23)cc1 | > 32 |  |
| O=C(Cn1cnc2ccccc2c1=O)Nc1ccccc1 | > 32 |  |
| Cc1ccccc1NC(=O)COc1ncnc2ccccc12 | > 32 |  |
| CCc1nc2ccc(Cl)cn2c1C(=O)NCc1ccc(N2CCC(c3ccc(OC(F)(F)F)cc3)CC2)cc1 [TELACEBEC] | 0.016 (≈ 0.00891 µg/mL) | Activity [10]: 0.8 log10CFU; inhibition [11]: 33.4%; inhibition [12]: inactive |
| COc1nc2ccc(Br)cc2cc1[C@@H](c1ccccc1)[C@@](O)(CCN(C)C)c1cccc2ccccc12 [BEDAQUILINE] |  | Activity [13]: 2.3 log10CFU |
| O=C(COc1ncnc2ccccc12)NCc1ccc(N2CCN(Cc3ccccc3)CC2)cc1 | > 32 |  |
